Results reported in article PMC6143625, “A high throughput screen for next-generation leads targeting malaria parasite transmission” (Nature Communications, 2018).
Like-named read-outs stand apart in the source and are kept apart here.

What was measured:
[1] = test system: P. falciparum stage V female gametocytes (female gamete formation); experiment: P. falciparum dual gamete formation assay (Pf DGFA), female readout (Pfs25 expression), 48 h carry-over format; assay type: cell-based, Plasmodium falciparum NF54; settings: Plasmodium falciparum
[2] = test system: P. falciparum stage V male gametocytes (male gamete formation); experiment: P. falciparum dual gamete formation assay (Pf DGFA), male readout (exflagellation), 48 h carry-over format; assay type: cell-based, Plasmodium falciparum NF54
[3] = molecular target: T1, recombinant luciferase (Photinus pyralis) (Photinus pyralis, UniProt P08659); experiment: Recombinant luciferase inhibition assay; assay type: biochemical; settings: 1h incubation; read-out: Recombinant luciferase assay IC50
T1 construct: purchased Promega E1701
Experimental: A counter-screen to the P. berghei liver stage assay was run against recombinant luciferase (Photinus pyralis) to measure the intrinsic bioluminescence inhibition from select compounds. Briefly, compounds were plated in 12-point serial dose response (50–2.82 × 10^−4 µM) in 1536-well opaque-bottom plates (789173-F, Greiner Bio-One). A 20 pM QuantiLum® Recombinant Luciferase (E1701, Promega) containing solution was made in screening media (DMEM, 11965–092, Invitrogen; 5% FBS, 35–011-CV, Corning; 5x Pen Strep Glutamine, 10378–016, Invitrogen), and 8 µl were added to each well. After 1 h incubation at room temperature, 2 µl of Bright-Glo™ (E2610, Promega) were dispensed per well, and bioluminescence was immediately measured using the EnVision microplate reader (PerkinElmer). DMSO (0.5%) and Luciferase Inhibitor-2 (9.8 µM) (119114, MilliporeSigma) served as negative and positive controls, respectively.

[4] = test system: P. falciparum 3D7 asexual blood stages; experiment: Whole-cell time extended asexual growth assay (pLDH); assay type: cell-based; settings: Plasmodium falciparum; for inhibition at 2 µM: primary screen, read-out: %Inh Asex stages @2uM
Experimental: Asexual activity was assayed via Plasmodium lactate dehydrogenase activity (pLDH), a surrogate of asexual parasite growth. […] 2 µM artesunate and DMSO were used as the positive and negative controls, respectively. […] After plate mixing, NBT reduction was measured by absorbance at 650 nm using Envision (Perkin Elmer).

[5] = 24h preincubation/carry-over, read-out: Pf DGFA Female IC50
[6] = 48h preincubation/carry-over, read-out: Pf DGFA Female IC50
[7] = Plasmodium falciparum, 48h preincubation/carry-over, read-out: Pf DGFA Male IC50
[8] = 72h incubation, read-out: Pf Asexual IC50
[9] = dose response retest, 72 h, read-out: IC50 (µM) Asex stages

T1 sequence (P08659 whole entry): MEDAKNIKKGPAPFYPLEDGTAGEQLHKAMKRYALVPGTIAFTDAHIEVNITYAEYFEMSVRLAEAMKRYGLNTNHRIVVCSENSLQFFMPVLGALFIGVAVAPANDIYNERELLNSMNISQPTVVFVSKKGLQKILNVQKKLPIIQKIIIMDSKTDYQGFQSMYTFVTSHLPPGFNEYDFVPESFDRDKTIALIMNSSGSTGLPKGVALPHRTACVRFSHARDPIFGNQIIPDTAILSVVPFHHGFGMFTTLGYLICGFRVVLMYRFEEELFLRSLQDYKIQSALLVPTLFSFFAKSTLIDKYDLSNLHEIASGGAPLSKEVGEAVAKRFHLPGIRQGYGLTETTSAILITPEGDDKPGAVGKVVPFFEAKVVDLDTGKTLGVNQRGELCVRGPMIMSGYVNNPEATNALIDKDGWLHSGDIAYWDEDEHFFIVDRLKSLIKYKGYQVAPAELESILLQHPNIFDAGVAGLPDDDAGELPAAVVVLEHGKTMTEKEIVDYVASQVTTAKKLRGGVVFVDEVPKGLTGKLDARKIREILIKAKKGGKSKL

SMILES	IC50 [1, 5] [µM]	IC50 ([1]; 48 h, dose response retest of primary hits, 48 h incubation, read-out: Female IC50) [µM]	IC50 [1, 6] [µM]	inhibition at 2 µM ([1]; primary screen, 2 uM, 48 h incubation, single replicate) [%]	IC50 ([2]; Plasmodium falciparum, 48 h, dose response retest of primary hits, 48 h incubation, read-out: Male IC50) [µM]	IC50 [2, 7] [µM]	IC50 ([2]; Plasmodium falciparum, resynthesized, incubated at room temperature, read-out: IC50 in Pf DGFA after aging) [µM]	IC50 ([2]; Plasmodium falciparum, resynthesized, prolonged incubation at 37 °C, read-out: IC50 in Pf DGFA after aging) [µM]	inhibition at 2 µM ([2]; Plasmodium falciparum, primary screen, 2 uM, 48 h incubation, single replicate) [%]	activity in the Pf DGFA ([2]; freshly resynthesized compound)	IC50 [3] [µM]	IC50 [4, 8] [µM]	IC50 [4, 9] [µM]	inhibition at 2 µM ([4]; 72 h) [%]
Cc1ccc(-c2cc(C(=O)NCCC3=CCCCC3)[nH]n2)o1 [DDD01255968]	> 12.5	> 10	> 12.5	< 30	1.55	1.82	15.9	5.85	37.5	inactive	17.9	> 20		
CCn1ncc(Br)c1CN(C)S(=O)(=O)c1ccc(C)cc1 [DDD01259521]	> 12.5		> 12.5			> 12.5					> 50	1.06	1.02	56.1
c1cnnc(N2CCCC2CNc2ncnc3sccc23)c1 (centres unmarked) [DDD01299704]	> 12.5		> 12.5			> 12.5					> 50	0.44	0.532	66.7
